The values below are quoted from earlier work in US20080124400A1, “Microparticles With High Loadings Of A Bioactive Agent” (Angiotech International AG, priority 2004, published 2008).

The test system of data set [1] is normal chondrocytes and non-proliferating synoviocytes.
The test system of data set [2] is collagen induced arthritis. The following applies: animal model.

For the molecule `CC(=O)O[C@H]1C(=O)[C@@]2(C)[C@H]([C@H](OC(=O)c3ccccc3)[C@]3(O)C[C@H](OC(=O)[C@H](O)[C@@H](NC(=O)c4ccccc4)c4ccccc4)C(C)=C1C3(C)C)[C@]1(OC(C)=O)CO[C@@H]1C[C@@H]2O` [Paclitaxel, paclitaxel], in data set [1], the “toxicity to non-proliferating cells” value is reported as “non-toxic”. Further, the AP-1 transcription activity entry in the data set with AP-1 is on record as “inhibits AP-1 transcription activity”. Further, the collagen induced arthritis entry in data set [2] was “inhibits collagen induced arthritis”. Moreover, in the data set with neutrophil, the neutrophil activation entry was “inhibits neutrophil activation”. Besides, the “T-cell response to stimuli and T-cell function” value in the data set with T-cell was “decreases T-cell response to stimuli, and inhibits T-cell function”. Besides, in the data set on synoviocytes, the “proliferation and apoptosis of synoviocytes” value was “prevents the proliferation of and induces apoptosis in synoviocytes”.
